Test results taken from patent US4585741A, “Method of assay for vitamin D metabolites” (priority 1983, dated 1986).

Assays:
[1] = test system: monoclonal antibody B2B4, raised in mice against bovine serum albumin-derivatized calcitroic acid; conditions: for concentration displacing half of the reversibly bound 3H-1,25-(OH)2 D3: monoclonal antibody b2b4, 18 h
Description: (§1) Monoclonal antibodies binding calcitroic acid were detected in culture supernatants by a radioimmunoassay in which supernatants were exposed to microtiter plates coated with a calcitroic acid-egg albumin conjugate.
Radioligand was added after 1 hr pre-incubation in displacement assays; otherwise it was added immediately. […] Alternatively, 20 λ of a partially purified preparation of carrier mouse IgG was added to the assay mixture. Then 40 λ of purified preparation of rabbit antimouse IgG was added and the mixture incubated for 4 hours at 4° C. […] After centrifugation at 1000×g for 20 minutes, the supernatants were aspirated, the pellets suspended in Budget Solve (Research Products International, Mount Prospect, Ill.) and their radioactivity determined in a Beckman 7000 Scintillation Counter (Beckman Instruments Company, Palo Alto, Calif.).
For sucrose density gradient analysis, 350 λ of assay mixture or supernatant after immunoprecipitation was layered on a linear 5-20% sucrose gradient and centrifuged at 100,000×g for 17 hours. Molecular markers, human gamma globulin (16 mg/ml assay buffer) (Calbiochem-Behring, La Jolla, Calif.) and BSA (12 mg/ml assay buffer) were centrifuged identically. Fractions were collected through a bottom puncture apparatus and their radioactivity assayed.

[2] = test system: monoclonal antibody B3A1, raised in mice against bovine serum albumin-derivatized calcitroic acid
Description: Bound tracer is separated from free by second antibody precipitation.
as §1
Radioligand was added after 1 hr pre-incubation in displacement assays; otherwise it was added immediately. After incubation for 18 hours, 10λ of rabbit anti-mouse Fab' (unrestricted gift of Dr. Judith Kapp-Pierce, Department of Pathology, Jewish Hospital of St. Louis and Washington University School of Medicine) was added with carrier mouse IgG and tubes were incubated for another 45 minutes at 4°. Alternatively, 20 λ of a partially purified preparation of carrier mouse IgG was added to the assay mixture. Then 40 λ of purified preparation of rabbit antimouse IgG was added and the mixture incubated for 4 hours at 4° C. […] After centrifugation at 1000×g for 20 minutes, the supernatants were aspirated, the pellets suspended in Budget Solve (Research Products International, Mount Prospect, Ill.) and their radioactivity determined in a Beckman 7000 Scintillation Counter (Beckman Instruments Company, Palo Alto, Calif.).

| Compound | displacement of radioligand from B2B4 (sucrose gradient) ([1]; 1 ng/ml of 1,25-(OH)2 D3 added prior to centrifugation, data not shown) | concentration displacing half of the reversibly bound 3H-1,25-(OH)2 D3 [1] | KD of calcitriol less than the KD of this analog by [2] | recognition by the antibody ([2]; at concentrations as great as 100 ng/ml) |
| --- | --- | --- | --- | --- |
| C=C1/C(=C\C=C2/CCC[C@]3(C)[C@@H]([C@H](C)CCCC(C)(C)O)CC[C@@H]23)C[C@@H](O)C[C@@H]1O [1,25-(OH)2 D3, 1,25-dihydroxycholecalciferol] | almost completely displaced |  |  |  |
| C=C1CC[C@H](O)C/C1=C/C=C1\CCC[C@]2(C)[C@@H]([C@H](C)CCC(O)C(C)(C)O)CC[C@@H]12 (stereo partly drawn) [24,25-(OH)2 D3, 24,25-dihydroxycholecalciferol] |  | 0.048 ng/mL | about 41/2 | does not recognize |
| C=C1CC[C@H](O)C/C1=C/C=C1\CCC[C@]2(C)[C@@H]([C@H](C)CCCC(C)(C)O)CC[C@@H]12 [25-OHD3, 25-hydroxycholecalciferol] |  | 0.068 ng/mL | more than 6 orders of magnitude |  |
